# Test results: patent US12042545B2, “Encapsulated extracellular vesicles” (THE BOARD OF TRUSTEES OF THE UNIVERSITY OF ILLINOIS, priority 2020, dated 2024)
# Ends that are not written are not given here.
# Experiment: Bulk transport experiments: release from alginate hydrogels
# Details: not given
row,Compound,effect of treatment on EV release from hydrogels
1,NC1=N[C@H](O)[C@H]2[C@H]3O[C@]4(O)O[C@@H]([C@@H](O)[C@@]2(N1)[C@@H]4O)[C@]3(O)CO [tetrodotoxin],significantly increased EV release in soft and stiff stress relaxing hydrogels

# Same assay, conditions: EVs encapsulated in alginate hydrogels, agent added or tethered
row,Compound,effect of treatment on EV release from hydrogels
1,O=C(O)CN(CCOCCOCCN(CC(=O)O)CC(=O)O)CC(=O)O [EGTA],did not affect the release
2,CCN(c1nc(N)c(C(=O)NC(=N)N)nc1Cl)C(C)C [EIPA],did not alter EV release from the hydrogels
3,O=C(O)c1cc([N+](=O)[O-])ccc1NCCCc1ccccc1 [NPPB],did not alter EV release from the hydrogels
4,C[C@@H](N)[C@H]1CC[C@H](C(=O)Nc2ccncc2)CC1 [Y27632],did not affect the EV release
5,Cc1ccc2c(c1)C(=O)C1(O)CCN(c3ccccc3)C1=N2 (stereo not drawn) [blebbistatin],did not affect the EV release
6,C[C@H](CCC(=O)O)C[C@H](C)C[C@H](C)C(=O)/C=C(\O)[C@H](C)C[C@H](C)C/C=C/[C@@H](C)[C@@H](O)[C@@H](C)[C@@H](O)C[C@@H]1CC[C@@](C)([C@H]2CC[C@@](C)([C@@H](C)O)O2)O1 [ionomycin],did not affect the release
7,"GsMTx4: a selective inhibition of cation-permeable mechanosensitive channels (GCLEFWWKCNPNDDKCCRPKLKCSKLFKLCNFSF; ends and bridges not checked; cysteine pairing not given here; UniProt Q7YT39 47-80, looked up)",increased EV release in stiff stress relaxing hydrogels

# Same assay, conditions: added to EV preparations during lyophilization
row,Compound,release behavior of lyophilized EVs with cryoprotectant
1,OC[C@H]1O[C@H](O[C@H]2O[C@H](CO)[C@@H](O)[C@H](O)[C@H]2O)[C@H](O)[C@@H](O)[C@@H]1O [trehalose],recovered release behavior
